Source: publication PMC12291119, “In Vitro Selection of Cyclized, Glycosylated Peptide Antigens That Tightly Bind HIV High Mannose Patch Antibodies” (ACS Central Science, 2025)
Numbered stars: 1 amine (or outer) side, 2 acyl side, 3 side chain; on linkers, the order of the positions; unused ones are H or OH. Bridge positions count the residues as written; N and C are the ends. Square brackets hold non-standard residues; d marks the D form. Ends that are not written are not given here. * marks the point of attachment. X1 = CC(=O)N[C@@H]1[C@@H](O)[C@H](O[C@@H]2O[C@H](CO)[C@@H](O[C@@H]3O[C@H](CO[C@H]4O[C@H](CO[C@H]5O[C@H](CO)[C@@H](O)[C@H](O)[C@@H]5O[C@H]5O[C@H](CO)[C@@H](O)[C@H](O)[C@@H]5O)[C@@H](O)[C@H](O[C@H]5O[C@H](CO)[C@@H](O)[C@H](O)[C@@H]5O[C@H]5O[C@H](CO)[C@@H](O)[C@H](O)[C@@H]5O)[C@@H]4O)[C@@H](O)[C@H](O[C@H]4O[C@H](CO)[C@@H](O)[C@H](O)[C@@H]4O[C@H]4O[C@H](CO)[C@@H](O)[C@H](O)[C@@H]4O[C@H]4O[C@H](CO)[C@@H](O)[C@H](O)[C@@H]4O)[C@@H]3O)[C@H](O)[C@H]2NC(C)=O)[C@@H](CO)O[C@H]1n1cc(CC[C@H](N[*:1])C(=O)[*:2])nn1; Biotin = O=C1N[C@H]2[C@H](CS[C@H]2CCCCC(=O)*)N1; mXylylene = c1cc(C[*:1])cc(C[*:2])c1

How the values were obtained:
[1] = test system: PGT128; experiment: Biolayer interferometry (BLI) of immobilized biotinylated glycopeptides binding to PGT128; conditions: for fold decrease in PGT128 binding relative to parent H1 glycopeptide: BLI KD compared with H1 (peptide 1)
Source text: 6 Biolayer interferometry (BLI) measurement of glycopeptides immobilized via biotin on a streptavidin biosensor binding to PGT128. All sensorgrams represent a series of 2-fold dilutions of antibody with highest concentration tested labeled. All sequences followed by GSGSGK(Biotin). M denotes homopropargylglycine, modified by CuAAC as in Figure .
C. Binding Analysis of PGT Antibody-Peptide/Glycopeptide Interactions by Biolayer Interferometry
1. Biolayer Interferometry Protocol
Biotinylated glycopeptide was loaded onto a streptavidin biosensor in 250 µL buffer 1 (500 to 1000 nM […] glycopeptide in 20 mM Tris pH 7.5, 150 mM NaCl, 0.2 mg/ml BSA, 0.02% (v/v) Tween-20) for 120s in a […] of black Eppendorf tube. The sensor was then washed with 250 µL of blank buffer 1 for 120 seconds in a […] black Eppendorf tube. The sensor was washed with 250 µL buffer 3 (10 mM glycine HCl, pH 2.5) for 120 seconds in […] of black Eppendorf tube and followed by 250 µL of blank buffer 1 for 120 seconds in a […] black Eppendorf tube to immobilize glycopeptides in a range of 0.5 nm to 2 nm response. The sensor was then equilibrated with 250 µL of buffer 2 (20 mM Tris pH 7.5, 150 mM NaCl, 2 mg/ml BSA, 0.1% (v/v) Tween-20) for 120 seconds in a […] of black Eppendorf tube PGT antibody (prepared in buffer 2) was associated at several concentrations for 300 seconds in 4 µL drop holder followed by dissociation into blank 250 µL of buffer 2 for 300 seconds in […] of black Eppendorf tube. After each dissociation sensor was regenerated to remove the remaining antibody by treatment with 250 µL of buffer 3 for 120 seconds, followed by 120 seconds of wash with 250 µL buffer 1 and re-equilibration with 250 µL buffer 2 in […] of black Eppendorf tube. Throughout the experiment, the shaker rate was set at 2200 rpm. Data were fit globally to a 1:1 binding model.
2. BLI Sensorgram of H1-QQQ-non-glycosylated Peptide with PGT128
Figure S33. […]

[2] = test system: HIV pseudovirus panel; conditions: ref number not given, cited from earlier work
Source text: We have sought to mimic HMP epitopes without using either the entire Env protein, which contains a plethora of “distracting” epitopes that easily elicit off-target antibodies; − or short glycopeptides directly derived from the Env sequence, which may not sufficiently recapitulate the HMP structure without the conformational support of the remaining Env protein. Aiming to design glycostructures that better mimic the glycan presentation in the HMP, we have pioneered various techniques for the directed evolution of DNA, , RNA, F-RNA, or peptide-supported , glycan clusters.

[3] = target: HIV Env; conditions: read-out: reported affinities of PGT122 for HIV Env; ref number not given; cited from earlier work
Source text: We performed preliminary binding assays for those sequences and others using translated peptides with or without attached glycans. No sequ ...

[4] = diverse/representative HIV pseudovirus panel

In the case of “AYTEKHNGIGDIRPAICQNSKNQNHRCNHYQIKLYIH[X1]L[X1]RLPHNYRNSGSGSGK(Biotin)-NH2 (linker 17-27 via mXylylene; C-terminus assumed) [peptide 3]”, the “fold decrease in PGT128 binding relative to parent H1 glycopeptide” value [1] is reported as about 2 fold.

With “ALFKPYPKIGDIRKARC[X1]LQHTLHHRTNKQPSYRRRLKTLIPLFRRC[X1]LGSGSGK(Biotin)-NH2 (linker 17-47 via mXylylene; C-terminus assumed) [compound 2]” the Kd ([1]; BLI, peptide immobilized via biotin on streptavidin biosensor, 2-fold dilutions of PGT128 in 20 mM Tris pH 7.5, 150 mM NaCl, 2 mg/ml BSA, 0.1% Tween-20, 300 s association, 300 s dissociation, global 1:1 fit) was 16.9 nM.

For “PGT122: HIV bnAb binding the High Mannose Patch”, the “breadth (fraction of HIV pseudovirus panel neutralized)” value [2, 4] is given as 65%, the “median IC50” value [2, 4] is given as 0.05 µg/mL and the “potency (EC50)” value ([2]; neutralization potency) is given as 0.05 µg/mL. The Kd [3] was 100 to 174 nM.

With “AYTEKHNGIGDIRPAIC[X1]NSKNQNHRCNHYQIKLYIHQLQRLPHNYRNSGSGSGK(Biotin)-NH2 (linker 17-27 via mXylylene; C-terminus assumed) [peptide 4]” the “fold decrease in PGT128 binding relative to parent H1 glycopeptide” value [1] was about 40 fold.
